How the values were obtained:
[1] = tested on: Mycobacterium tuberculosis Erdman (autoluminescent); experiment: Einf, fitted maximum growth inhibition of three-drug combination (fraction); higher = stronger maximal inhibition
Method: (§1)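 DiaMOND equipotent three-drug combination dose responses (10 doses, 1.5- or 2-fold spacing, centred on IC90) against autoluminescent M. tuberculosis Erdman in 8 in vitro models. Read-out is OD600, or luminescence for the intracellular and dormancy models, normalised to untreated wells. Hill-fit Einf, AUC25 and GRinf are potency metrics; FIC50 and FIC90 are total Loewe fractional inhibitory concentrations as log2 (negative = synergy).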

[2] = tested on: Mycobacterium tuberculosis Erdman (autoluminescent); experiment: total FIC90 (Loewe) at 90% inhibition, three-drug combination (log2); higher = more antagonistic
Method: as §1

[3] = tested on: Mycobacterium tuberculosis Erdman (autoluminescent); experiment: GRinf, maximum normalised growth rate inhibition (three-drug combination) (unitless (-1 to 1)); higher = less effect (negative = killing)
Method: as §1

[4] = tested on: Mycobacterium tuberculosis Erdman (autoluminescent); experiment: total FIC50 (Loewe) at 50% inhibition, three-drug combination (log2); higher = more antagonistic
Method: as §1

[5] = tested on: Mycobacterium tuberculosis Erdman (autoluminescent); experiment: AUC25, normalised area under dose response up to IC25 (three-drug combination) (fraction (0-1)); higher = more potent at low dose
Method: as §1

[6] = in vitro model: acidic pH 5.7, time point: constant (~7 days, model-specific)
[7] = in vitro model: acidic pH 5.7, time point: terminal (~4-5 doublings, model-specific)
[8] = in vitro model: butyrate, time point: constant (~7 days, model-specific)
[9] = in vitro model: butyrate, time point: terminal (~4-5 doublings, model-specific)
[10] = in vitro model: cholesterol 0.05 mM, time point: constant (~7 days, model-specific)
[11] = in vitro model: cholesterol 0.05 mM, time point: terminal (~4-5 doublings, model-specific)
[12] = in vitro model: cholesterol-high 0.2 mM, time point: constant (~7 days, model-specific)
[13] = in vitro model: cholesterol-high 0.2 mM, time point: terminal (~4-5 doublings, model-specific)
[14] = in vitro model: dormancy (butyrate + nitrate, low O2), time point: constant (~7 days, model-specific)
[15] = in vitro model: dormancy (butyrate + nitrate, low O2), time point: terminal (~4-5 doublings, model-specific)
[16] = in vitro model: intracellular J774, time point: constant = terminal
[17] = in vitro model: standard 7H9 glycerol, time point: constant = terminal
[18] = in vitro model: valerate, time point: constant (~7 days, model-specific)
[19] = in vitro model: valerate, time point: terminal (~4-5 doublings, model-specific)

With NNC(=O)c1ccncc1 [isoniazid] + NC(=O)c1cnccn1 [pyrazinamide] + CO[C@H]1/C=C/O[C@@]2(C)Oc3c(C)c(O)c4c(O)c(c(/C=N/N5CCN(C6CCCC6)CC5)c(O)c4c3C2=O)NC(=O)/C(C)=C\C=C\[C@H](C)[C@H](O)[C@@H](C)[C@@H](O)[C@@H](C)[C@H](OC(C)=O)[C@@H]1C [rifapentine] the Einf [1, 6] was 0.925, the Einf [1, 7] was 0.985 and the Einf [1, 8] was 0.924. For the same molecule, the Einf [1, 9] was 0.969, the Einf [1, 10] was 0.706 and the Einf [1, 11] was 0.893. The Einf [1, 12] was 0.905, the Einf [1, 13] was 0.997 and the Einf [1, 14] was 0.883. It also gave an Einf [1, 15] of 0.973, an Einf [1, 16] of 0.987 and an Einf [1, 17] of 0.915. The Einf [1, 18] was 0.878, the Einf [1, 19] was 0.949 and the “total FIC90” value [2, 7] was -3.81. The “total FIC90” value [2, 8] was 0.6, the “total FIC90” value [2, 9] was -1.91 and the “total FIC90” value [2, 13] was 1.11. The “total FIC90” value [2, 14] was -2.4, the “total FIC90” value [2, 15] was -2.43 and the “total FIC90” value [2, 16] was 0.243. For the same molecule, the “total FIC90” value [2, 19] was -0.889, the GRinf [3, 6] was -0.35 and the GRinf [3, 7] was -0.234. For the same molecule, the GRinf [3, 8] was -0.00381, the GRinf [3, 9] was 0.0193 and the GRinf [3, 10] was -0.183. It also gave a GRinf [3, 11] of -0.166, a GRinf [3, 12] of -0.222 and a GRinf [3, 13] of -0.658. For the same molecule, the GRinf [3, 14] was 0.232, the GRinf [3, 15] was -0.0606 and the GRinf [3, 16] was -0.309. For the same molecule, the GRinf [3, 17] was 0.0607, the GRinf [3, 18] was -0.183 and the GRinf [3, 19] was -0.0194. The “total FIC50” value [4, 6] was -3.55, the “total FIC50” value [4, 7] was -2.67 and the “total FIC50” value [4, 8] was -1.95. The “total FIC50” value [4, 9] was -1.85, the “total FIC50” value [4, 11] was -0.19 and the “total FIC50” value [4, 12] was 0.738. The “total FIC50” value [4, 13] was 1.17, the “total FIC50” value [4, 14] was -2.31 and the “total FIC50” value [4, 15] was -2.22. The “total FIC50” value [4, 17] was -5.95, the “total FIC50” value [4, 18] was -1.89 and the “total FIC50” value [4, 19] was -1.1. The AUC25 [5, 6] was 0.096, the AUC25 [5, 7] was 0.0425 and the AUC25 [5, 8] was 0.0899. For the same molecule, the AUC25 [5, 9] was 0.0698, the AUC25 [5, 10] was 0.108 and the AUC25 [5, 11] was 0.0828. For the same molecule, the AUC25 [5, 12] was 0.0744, the AUC25 [5, 13] was 0.0802 and the AUC25 [5, 14] was 0.0611. For the same molecule, the AUC25 [5, 15] was 0.0351, the AUC25 [5, 17] was 0.066 and the AUC25 [5, 18] was 0.118. It also gave an AUC25 [5, 19] of 0.0446.

Molecule COc1nc2ccc(Br)cc2cc1[C@@H](c1ccccc1)[C@@](O)(CCN(C)C)c1cccc2ccccc12 [bedaquiline] + CC(=O)NC[C@H]1CN(c2ccc(N3CCOCC3)c(F)c2)C(=O)O1 [linezolid] + COc1c(N2C[C@@H]3CCCN[C@@H]3C2)c(F)cc2c(=O)c(C(=O)O)cn(C3CC3)c12 [moxifloxacin] has an Einf [1, 6] of 0.833, an Einf [1, 7] of 0.934 and an Einf [1, 8] of 0.936. It also gave an Einf [1, 9] of 0.968, an Einf [1, 10] of 0.758 and an Einf [1, 11] of 0.966. The Einf [1, 12] was 0.992, the Einf [1, 13] was 1 and the Einf [1, 14] was 0.921. The Einf [1, 15] was 0.989, the Einf [1, 16] was 0.862 and the Einf [1, 17] was 0.971. For the same molecule, the Einf [1, 18] was 0.902, the Einf [1, 19] was 0.947 and the “total FIC90” value [2, 7] was -0.0182. The “total FIC90” value [2, 8] was 0.695, the “total FIC90” value [2, 9] was 0.691 and the “total FIC90” value [2, 11] was -0.532. The “total FIC90” value [2, 12] was 0.835, the “total FIC90” value [2, 13] was 1.04 and the “total FIC90” value [2, 14] was 0.891. The “total FIC90” value [2, 15] was 1.09, the “total FIC90” value [2, 16] was 1.32 and the “total FIC90” value [2, 17] was 0.63. For the same molecule, the “total FIC90” value [2, 19] was 0.911, the GRinf [3, 6] was -0.483 and the GRinf [3, 7] was -0.2. For the same molecule, the GRinf [3, 8] was -0.0894, the GRinf [3, 9] was -0.0714 and the GRinf [3, 10] was -0.288. The GRinf [3, 11] was -0.449, the GRinf [3, 12] was -0.761 and the GRinf [3, 13] was -0.836. The GRinf [3, 14] was 0.149, the GRinf [3, 15] was -0.0826 and the GRinf [3, 16] was -0.242. The GRinf [3, 17] was -0.102, the GRinf [3, 18] was -0.144 and the GRinf [3, 19] was -0.0335. For the same molecule, the “total FIC50” value [4, 6] was 0.265, the “total FIC50” value [4, 7] was 0.43 and the “total FIC50” value [4, 8] was 0.691. The “total FIC50” value [4, 9] was 0.693, the “total FIC50” value [4, 10] was 0.224 and the “total FIC50” value [4, 11] was -0.0261. For the same molecule, the “total FIC50” value [4, 12] was 0.524, the “total FIC50” value [4, 13] was 0.657 and the “total FIC50” value [4, 14] was 0.916. The “total FIC50” value [4, 15] was 1.62, the “total FIC50” value [4, 17] was 0.152 and the “total FIC50” value [4, 18] was 0.407. The “total FIC50” value [4, 19] was 0.697, the AUC25 [5, 6] was 0.108 and the AUC25 [5, 7] was 0.0466. It also gave an AUC25 [5, 8] of 0.0949, an AUC25 [5, 9] of 0.0643 and an AUC25 [5, 10] of 0.131. For the same molecule, the AUC25 [5, 11] was 0.144, the AUC25 [5, 12] was 0.11 and the AUC25 [5, 13] was 0.108. It also gave an AUC25 [5, 14] of 0.0831, an AUC25 [5, 15] of 0.0363 and an AUC25 [5, 17] of 0.0873. The AUC25 [5, 18] was 0.118 and the AUC25 [5, 19] was 0.0703.

Molecule COc1nc2ccc(Br)cc2cc1[C@@H](c1ccccc1)[C@@](O)(CCN(C)C)c1cccc2ccccc12 [bedaquiline] + CC(C)/N=c1\cc2n(-c3ccc(Cl)cc3)c3ccccc3nc-2cc1Nc1ccc(Cl)cc1 [clofazimine] + NNC(=O)c1ccncc1 [isoniazid] has an Einf [1, 6] of 0.842, an Einf [1, 7] of 0.969 and an Einf [1, 8] of 0.945. For the same molecule, the Einf [1, 9] was 0.979, the Einf [1, 10] was 0.724 and the Einf [1, 11] was 0.933. The Einf [1, 12] was 0.955, the Einf [1, 13] was 1 and the Einf [1, 14] was 0.911. It also gave an Einf [1, 15] of 0.991, an Einf [1, 16] of 0.96 and an Einf [1, 17] of 0.97. For the same molecule, the Einf [1, 18] was 0.903, the Einf [1, 19] was 0.948 and the “total FIC90” value [2, 7] was 0.616. The “total FIC90” value [2, 8] was -0.194, the “total FIC90” value [2, 9] was -0.306 and the “total FIC90” value [2, 11] was -0.22. The “total FIC90” value [2, 12] was 0.206, the “total FIC90” value [2, 13] was 0.259 and the “total FIC90” value [2, 14] was -0.362. The “total FIC90” value [2, 15] was -0.303, the “total FIC90” value [2, 16] was -0.134 and the “total FIC90” value [2, 17] was -0.677. The “total FIC90” value [2, 18] was -0.379, the “total FIC90” value [2, 19] was 0.504 and the GRinf [3, 6] was -0.379. It also gave a GRinf [3, 7] of -0.293, a GRinf [3, 8] of -0.1 and a GRinf [3, 9] of -0.119. It also gave a GRinf [3, 10] of -0.209, a GRinf [3, 11] of -0.263 and a GRinf [3, 12] of -0.396. It also gave a GRinf [3, 13] of -0.54, a GRinf [3, 14] of 0.317 and a GRinf [3, 15] of -0.0967. It also gave a GRinf [3, 16] of -0.447, a GRinf [3, 17] of -0.0956 and a GRinf [3, 18] of -0.0916. For the same molecule, the GRinf [3, 19] was -0.0502, the “total FIC50” value [4, 6] was 0.675 and the “total FIC50” value [4, 7] was 0.356. For the same molecule, the “total FIC50” value [4, 8] was -0.0224, the “total FIC50” value [4, 9] was -0.00128 and the “total FIC50” value [4, 10] was -0.55. For the same molecule, the “total FIC50” value [4, 11] was 0.444, the “total FIC50” value [4, 12] was 0.226 and the “total FIC50” value [4, 13] was 0.648. The “total FIC50” value [4, 14] was 0.0126, the “total FIC50” value [4, 15] was -0.283 and the “total FIC50” value [4, 17] was -0.294. For the same molecule, the “total FIC50” value [4, 18] was 0.133, the “total FIC50” value [4, 19] was 0.246 and the AUC25 [5, 6] was 0.11. The AUC25 [5, 7] was 0.09, the AUC25 [5, 8] was 0.0622 and the AUC25 [5, 9] was 0.0523. It also gave an AUC25 [5, 10] of 0.0812, an AUC25 [5, 11] of 0.0932 and an AUC25 [5, 12] of 0.0765. It also gave an AUC25 [5, 13] of 0.0685, an AUC25 [5, 14] of 0.0746 and an AUC25 [5, 15] of 0.0741. It also gave an AUC25 [5, 17] of 0.0945, an AUC25 [5, 18] of 0.109 and an AUC25 [5, 19] of 0.0654.

— the supplement of paper PMC8617591
